Publication PMC9030254, “Target Hopping from Protein Kinases to PXR: Identification of Small-Molecule Protein Kinase Inhibitors as Selective Modulators of Pregnane X Receptor from TüKIC Library” (Cells, 2022)

Key:
Test in all cases: Kinase profiling
Format in all cases: biochemical
TSK2 = target: T1, TSK2 (Homo sapiens, UniProt Q96PF2)
T1 construct: purchased ProQinase (Freiburg, Germany)
T1 sequence (Q96PF2 1-358): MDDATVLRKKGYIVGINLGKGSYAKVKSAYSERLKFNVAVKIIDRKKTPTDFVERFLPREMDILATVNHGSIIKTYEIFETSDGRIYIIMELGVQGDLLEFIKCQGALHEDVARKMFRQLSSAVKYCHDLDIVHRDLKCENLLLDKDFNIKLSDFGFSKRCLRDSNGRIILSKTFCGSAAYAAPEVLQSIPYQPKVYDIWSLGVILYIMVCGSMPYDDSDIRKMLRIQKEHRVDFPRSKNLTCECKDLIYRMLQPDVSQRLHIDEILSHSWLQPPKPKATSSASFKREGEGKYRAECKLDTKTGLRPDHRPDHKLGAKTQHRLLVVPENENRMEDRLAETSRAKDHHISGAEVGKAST
Description: (§1) The analysis was performed by ProQinase (Freiburg, Germany).

PDGFRbeta = target: T2, PDGFRbeta (Homo sapiens, UniProt P09619)
T2 construct: purchased ProQinase (Freiburg, Germany)
Description: as §1

BRK = target: T3, BRK (Homo sapiens, UniProt Q13882)
T3 construct: purchased ProQinase (Freiburg, Germany)
Description: as §1

PIM1 = target: T4, PIM1 (Homo sapiens, UniProt P11309)
T4 construct: purchased ProQinase (Freiburg, Germany)
Description: as §1

MAPKAPK5 = target: T5, MAPKAPK5 (Homo sapiens, UniProt Q8IW41)
T5 construct: purchased ProQinase (Freiburg, Germany)
T5 sequence (Q8IW41 1-473): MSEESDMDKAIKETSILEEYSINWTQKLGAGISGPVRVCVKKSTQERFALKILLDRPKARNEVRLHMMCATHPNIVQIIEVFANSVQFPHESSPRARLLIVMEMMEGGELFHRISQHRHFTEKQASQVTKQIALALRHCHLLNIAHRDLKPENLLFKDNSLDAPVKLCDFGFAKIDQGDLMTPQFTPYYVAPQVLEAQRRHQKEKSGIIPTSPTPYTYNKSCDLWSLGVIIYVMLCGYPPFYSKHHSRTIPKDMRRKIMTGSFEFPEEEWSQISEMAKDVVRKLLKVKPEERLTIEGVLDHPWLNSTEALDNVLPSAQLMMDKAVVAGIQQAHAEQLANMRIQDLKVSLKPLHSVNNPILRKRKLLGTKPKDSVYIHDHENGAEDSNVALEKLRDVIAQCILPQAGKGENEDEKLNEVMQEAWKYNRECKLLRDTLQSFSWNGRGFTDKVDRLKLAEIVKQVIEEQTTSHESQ
Description: as §1

PAK7 = target: T6, PAK7 (Homo sapiens, UniProt Q9P286)
T6 construct: purchased ProQinase (Freiburg, Germany)
Description: as §1

JNK1 = target: T7, JNK1 (Homo sapiens, UniProt P45983)
T7 construct: purchased ProQinase (Freiburg, Germany)
Description: as §1

JNK3 = target: T8, JNK3 (Homo sapiens, UniProt P53779)
T8 construct: purchased ProQinase (Freiburg, Germany)
Description: as §1

BMPR1A = target: T9, BMPR1A (Homo sapiens, UniProt P36894)
T9 construct: purchased ProQinase (Freiburg, Germany)
Description: as §1

CDK2/CycE1 = target: T10, CDK2/CycE1 (Homo sapiens, UniProt P24941)
T10 construct: purchased ProQinase (Freiburg, Germany)
Description: as §1

NEK4 = target: T11, NEK4 (Homo sapiens, UniProt P51957)
T11 construct: purchased ProQinase (Freiburg, Germany)
Description: as §1

ACVR2A = target: T12, ACVR2A (Homo sapiens, UniProt P27037)
T12 construct: purchased ProQinase (Freiburg, Germany)
Description: as §1

CK1delta = target: T13, CK1delta (Homo sapiens, UniProt P48730)
T13 construct: purchased ProQinase (Freiburg, Germany)
Description: as §1

ROS = target: T14, ROS (Homo sapiens, UniProt P08922)
T14 construct: purchased ProQinase (Freiburg, Germany)
Description: as §1

LIMK1 = target: T15, LIMK1 (Homo sapiens, UniProt P53667)
T15 construct: purchased ProQinase (Freiburg, Germany)
Description: as §1

PBK = target: T16, PBK (Homo sapiens, UniProt Q96KB5)
T16 construct: purchased ProQinase (Freiburg, Germany)
T16 sequence (Q96KB5 1-322): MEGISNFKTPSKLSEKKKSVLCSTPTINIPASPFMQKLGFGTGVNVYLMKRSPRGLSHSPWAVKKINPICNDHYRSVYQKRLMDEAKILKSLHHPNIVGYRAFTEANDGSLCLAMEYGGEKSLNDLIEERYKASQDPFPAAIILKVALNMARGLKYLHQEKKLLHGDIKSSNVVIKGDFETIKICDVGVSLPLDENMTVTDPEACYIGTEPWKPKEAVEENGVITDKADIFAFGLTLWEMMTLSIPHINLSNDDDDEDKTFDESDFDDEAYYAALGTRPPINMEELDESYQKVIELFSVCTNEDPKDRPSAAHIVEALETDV
Description: as §1

T3 sequence (Q13882 whole entry): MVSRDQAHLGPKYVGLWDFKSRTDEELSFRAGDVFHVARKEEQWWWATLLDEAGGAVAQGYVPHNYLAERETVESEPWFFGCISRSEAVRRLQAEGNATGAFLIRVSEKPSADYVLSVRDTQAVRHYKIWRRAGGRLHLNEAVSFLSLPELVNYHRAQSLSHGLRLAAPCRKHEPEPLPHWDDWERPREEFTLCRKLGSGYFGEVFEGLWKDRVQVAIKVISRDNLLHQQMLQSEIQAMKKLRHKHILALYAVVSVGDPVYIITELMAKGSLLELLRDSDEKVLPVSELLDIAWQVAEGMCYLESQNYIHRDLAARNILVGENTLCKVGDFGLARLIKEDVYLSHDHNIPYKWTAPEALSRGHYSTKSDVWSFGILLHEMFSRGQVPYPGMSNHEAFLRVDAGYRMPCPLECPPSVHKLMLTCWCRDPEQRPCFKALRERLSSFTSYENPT
T15 sequence (P53667 whole entry): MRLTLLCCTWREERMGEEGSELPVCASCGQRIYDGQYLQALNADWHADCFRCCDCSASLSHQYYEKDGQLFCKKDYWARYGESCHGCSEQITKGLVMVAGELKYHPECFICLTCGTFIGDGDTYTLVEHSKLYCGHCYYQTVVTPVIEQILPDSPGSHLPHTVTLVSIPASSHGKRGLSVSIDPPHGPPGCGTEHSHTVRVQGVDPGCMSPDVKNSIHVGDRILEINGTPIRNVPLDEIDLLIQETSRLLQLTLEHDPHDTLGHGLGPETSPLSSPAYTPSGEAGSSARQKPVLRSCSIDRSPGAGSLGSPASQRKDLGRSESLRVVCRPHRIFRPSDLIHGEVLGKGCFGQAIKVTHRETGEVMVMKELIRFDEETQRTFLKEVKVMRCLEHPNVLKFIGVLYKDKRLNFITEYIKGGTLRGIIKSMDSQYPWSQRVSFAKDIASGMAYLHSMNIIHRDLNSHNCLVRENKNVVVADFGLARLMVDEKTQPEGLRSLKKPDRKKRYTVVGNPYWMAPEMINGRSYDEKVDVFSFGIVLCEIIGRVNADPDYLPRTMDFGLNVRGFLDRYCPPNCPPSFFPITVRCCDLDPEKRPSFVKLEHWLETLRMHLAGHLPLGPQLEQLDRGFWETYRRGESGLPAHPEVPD
T12 sequence (P27037 20-513): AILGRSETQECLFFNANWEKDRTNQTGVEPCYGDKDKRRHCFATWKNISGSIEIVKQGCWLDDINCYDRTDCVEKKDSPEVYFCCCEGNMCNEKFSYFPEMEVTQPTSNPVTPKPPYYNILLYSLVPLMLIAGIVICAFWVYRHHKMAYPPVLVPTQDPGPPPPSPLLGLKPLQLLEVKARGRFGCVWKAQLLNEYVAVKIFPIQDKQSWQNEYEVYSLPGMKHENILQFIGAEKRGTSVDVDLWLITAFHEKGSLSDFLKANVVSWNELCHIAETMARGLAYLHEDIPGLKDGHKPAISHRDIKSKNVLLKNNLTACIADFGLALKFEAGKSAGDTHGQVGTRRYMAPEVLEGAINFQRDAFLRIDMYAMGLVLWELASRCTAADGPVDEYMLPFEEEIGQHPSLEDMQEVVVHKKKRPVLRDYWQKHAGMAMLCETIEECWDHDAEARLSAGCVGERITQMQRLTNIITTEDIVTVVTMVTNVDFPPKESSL
T9 sequence (P36894 24-532): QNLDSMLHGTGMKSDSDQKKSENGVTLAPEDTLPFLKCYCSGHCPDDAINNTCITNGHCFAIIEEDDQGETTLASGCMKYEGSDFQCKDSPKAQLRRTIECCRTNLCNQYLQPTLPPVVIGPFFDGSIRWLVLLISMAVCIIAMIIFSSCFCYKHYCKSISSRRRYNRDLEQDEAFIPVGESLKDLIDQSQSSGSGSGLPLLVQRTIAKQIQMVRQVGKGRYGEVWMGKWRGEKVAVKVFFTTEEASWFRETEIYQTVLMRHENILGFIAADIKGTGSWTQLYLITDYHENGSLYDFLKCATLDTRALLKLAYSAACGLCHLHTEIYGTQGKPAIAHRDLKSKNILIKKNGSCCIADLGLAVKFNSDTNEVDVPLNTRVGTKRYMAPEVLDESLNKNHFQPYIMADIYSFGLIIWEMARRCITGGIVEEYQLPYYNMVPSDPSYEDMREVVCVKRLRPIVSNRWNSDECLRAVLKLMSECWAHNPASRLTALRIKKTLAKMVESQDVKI
T13 sequence (P48730 whole entry): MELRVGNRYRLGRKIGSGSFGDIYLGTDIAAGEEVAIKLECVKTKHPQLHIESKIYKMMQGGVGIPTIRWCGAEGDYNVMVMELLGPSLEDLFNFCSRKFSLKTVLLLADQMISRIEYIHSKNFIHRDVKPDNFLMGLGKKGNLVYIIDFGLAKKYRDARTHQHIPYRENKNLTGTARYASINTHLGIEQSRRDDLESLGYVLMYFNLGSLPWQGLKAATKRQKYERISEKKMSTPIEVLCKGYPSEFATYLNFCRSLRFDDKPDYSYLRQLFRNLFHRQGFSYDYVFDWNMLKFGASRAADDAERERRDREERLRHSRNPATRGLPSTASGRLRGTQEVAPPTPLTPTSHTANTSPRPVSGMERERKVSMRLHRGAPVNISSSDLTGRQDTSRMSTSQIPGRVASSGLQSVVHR
T6 sequence (Q9P286 whole entry): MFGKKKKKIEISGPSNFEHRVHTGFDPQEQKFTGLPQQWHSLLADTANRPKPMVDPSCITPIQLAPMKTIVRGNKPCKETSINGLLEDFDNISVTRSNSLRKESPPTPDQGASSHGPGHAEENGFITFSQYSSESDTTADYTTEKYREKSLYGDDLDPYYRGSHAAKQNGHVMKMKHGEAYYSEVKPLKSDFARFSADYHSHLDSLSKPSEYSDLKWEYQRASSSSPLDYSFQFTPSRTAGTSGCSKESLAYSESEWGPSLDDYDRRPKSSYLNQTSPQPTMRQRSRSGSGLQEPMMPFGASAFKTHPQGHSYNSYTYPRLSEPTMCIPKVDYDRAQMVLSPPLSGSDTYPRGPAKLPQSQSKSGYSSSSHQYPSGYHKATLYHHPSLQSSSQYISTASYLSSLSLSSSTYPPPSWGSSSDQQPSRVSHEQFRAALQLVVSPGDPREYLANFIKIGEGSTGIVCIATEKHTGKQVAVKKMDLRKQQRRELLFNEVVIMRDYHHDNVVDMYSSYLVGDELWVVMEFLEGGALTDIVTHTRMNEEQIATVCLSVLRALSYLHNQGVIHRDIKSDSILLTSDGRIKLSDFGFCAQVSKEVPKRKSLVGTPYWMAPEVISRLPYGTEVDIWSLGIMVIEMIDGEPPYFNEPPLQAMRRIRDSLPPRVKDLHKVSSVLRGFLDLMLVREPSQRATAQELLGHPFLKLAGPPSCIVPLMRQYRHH
T7 sequence (P45983 whole entry): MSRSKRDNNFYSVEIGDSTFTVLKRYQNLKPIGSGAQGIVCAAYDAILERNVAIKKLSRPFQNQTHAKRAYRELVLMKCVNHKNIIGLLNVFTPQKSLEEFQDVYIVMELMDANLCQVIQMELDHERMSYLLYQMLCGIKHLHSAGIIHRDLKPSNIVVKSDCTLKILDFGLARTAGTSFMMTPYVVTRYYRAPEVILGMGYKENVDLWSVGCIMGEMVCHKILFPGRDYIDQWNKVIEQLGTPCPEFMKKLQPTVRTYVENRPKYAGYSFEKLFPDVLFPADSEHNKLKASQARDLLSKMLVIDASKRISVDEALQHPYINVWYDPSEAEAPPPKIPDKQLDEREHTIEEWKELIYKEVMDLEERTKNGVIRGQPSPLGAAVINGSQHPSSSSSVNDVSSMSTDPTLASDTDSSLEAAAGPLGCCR
T2 sequence (P09619 33-1106): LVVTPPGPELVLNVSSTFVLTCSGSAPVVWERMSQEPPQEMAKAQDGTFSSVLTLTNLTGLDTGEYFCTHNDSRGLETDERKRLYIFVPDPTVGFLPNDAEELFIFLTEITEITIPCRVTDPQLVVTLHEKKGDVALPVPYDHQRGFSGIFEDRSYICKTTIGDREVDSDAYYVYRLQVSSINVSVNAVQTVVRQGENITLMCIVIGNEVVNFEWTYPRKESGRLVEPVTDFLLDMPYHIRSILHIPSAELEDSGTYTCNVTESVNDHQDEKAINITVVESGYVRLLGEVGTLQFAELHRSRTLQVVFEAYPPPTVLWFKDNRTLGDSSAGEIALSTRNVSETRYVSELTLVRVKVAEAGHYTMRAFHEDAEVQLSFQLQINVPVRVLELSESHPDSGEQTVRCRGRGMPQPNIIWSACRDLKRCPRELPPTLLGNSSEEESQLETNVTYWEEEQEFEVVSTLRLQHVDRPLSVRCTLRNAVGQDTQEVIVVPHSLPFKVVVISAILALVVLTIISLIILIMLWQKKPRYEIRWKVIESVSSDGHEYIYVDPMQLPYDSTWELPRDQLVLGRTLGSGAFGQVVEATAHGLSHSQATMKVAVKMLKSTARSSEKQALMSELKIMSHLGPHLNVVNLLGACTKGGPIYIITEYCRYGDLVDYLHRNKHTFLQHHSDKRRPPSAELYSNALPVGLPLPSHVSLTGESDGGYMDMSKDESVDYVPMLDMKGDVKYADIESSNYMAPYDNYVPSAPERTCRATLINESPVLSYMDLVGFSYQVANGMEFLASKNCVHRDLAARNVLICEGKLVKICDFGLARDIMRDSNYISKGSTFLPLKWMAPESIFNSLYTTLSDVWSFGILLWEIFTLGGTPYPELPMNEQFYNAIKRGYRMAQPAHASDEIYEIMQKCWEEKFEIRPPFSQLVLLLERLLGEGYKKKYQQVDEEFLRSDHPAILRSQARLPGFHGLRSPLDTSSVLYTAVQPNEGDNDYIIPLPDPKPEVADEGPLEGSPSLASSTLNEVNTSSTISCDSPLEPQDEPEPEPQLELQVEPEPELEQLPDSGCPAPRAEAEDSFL

| SMILES | Residual activity (TSK2; 1.0E-05 M) | Residual activity (TSK2; 1.0E-06 M) | Residual activity (PDGFRbeta; 1.0E-05 M) | Residual activity (PDGFRbeta; 1.0E-06 M) | Residual activity (BRK; 1.0E-05 M) | Residual activity (BRK; 1.0E-06 M) | Residual activity (PIM1; 1.0E-05 M) | Residual activity (PIM1; 1.0E-06 M) | Residual activity (MAPKAPK5; 1.0E-05 M) | Residual activity (MAPKAPK5; 1.0E-06 M) | Residual activity (PAK7; 1.0E-05 M) | Residual activity (PAK7; 1.0E-06 M) | Residual activity (JNK1; 1.0E-05 M) | Residual activity (JNK1; 1.0E-06 M) | Residual activity (JNK3; 1.0E-05 M) | Residual activity (JNK3; 1.0E-06 M) | Residual activity (BMPR1A; 1.0E-05 M) | Residual activity (BMPR1A; 1.0E-06 M) | Residual activity (CDK2/CycE1; 1.0E-05 M) | Residual activity (CDK2/CycE1; 1.0E-06 M) | other results |
| --- | --- | --- | --- | --- | --- | --- | --- | --- | --- | --- | --- | --- | --- | --- | --- | --- | --- | --- | --- | --- | --- |
| O=C(Nc1ccc(F)c(Nc2ccc3c(c2)CCCCC3=O)c1)c1cccc(F)c1 [Compound 109] | 99 % of control | 88 % of control | 99 % of control | 98 % of control | 84 % of control | 105 % of control | 70 % of control | 96 % of control | 97 % of control | 101 % of control | 93 % of control | 101 % of control | 81 % of control | 90 % of control | 92 % of control | 83 % of control | 88 % of control | 92 % of control | 103 % of control | 93 % of control | Residual activity (NEK4; 1.0E-05 M): 94 % of control; Residual activity (NEK4; 1.0E-06 M): 98 % of control; Residual activity (ACVR2A; 1.0E-05 M): 108 % of control; Residual activity (ACVR2A; 1.0E-06 M): 99 % of control; inhibition at 1 µM (CK1delta; 1 µM, read-out: inhibition of CK1-δ): ≥ 50%; inhibition at 10 µM (CK1delta; 10 µM, read-out: inhibition of CK1-δ): ≥ 50%; Residual activity (CK1delta; 1.0E-05 M): 15 % of control; Residual activity (CK1delta; 1.0E-06 M): 23 % of control; Residual activity (ROS; 1.0E-05 M): 85 % of control; Residual activity (ROS; 1.0E-06 M): 97 % of control; Residual activity (LIMK1; 1.0E-05 M): 96 % of control; Residual activity (LIMK1; 1.0E-06 M): 89 % of control; Residual activity (PBK; 1.0E-05 M): 106 % of control; Residual activity (PBK; 1.0E-06 M): 95 % of control |
| O=C(Cc1ccccc1)Nc1ccc(F)c(Nc2ccc3c(c2)CCCCC3=O)c1 [Compound 100] | 93 % of control | 97 % of control | 99 % of control | 100 % of control | 106 % of control | 105 % of control | 74 % of control | 88 % of control | 89 % of control | 127 % of control | 92 % of control | 99 % of control | 76 % of control | 100 % of control | 119 % of control | 96 % of control | 82 % of control | 101 % of control | 118 % of control | 86 % of control | Residual activity (NEK4; 1.0E-05 M): 81 % of control; Residual activity (NEK4; 1.0E-06 M): 102 % of control; Residual activity (ACVR2A; 1.0E-05 M): 95 % of control; Residual activity (ACVR2A; 1.0E-06 M): 89 % of control; Residual activity (CK1delta; 1.0E-05 M): 106 % of control; Residual activity (CK1delta; 1.0E-06 M): 110 % of control; Residual activity (ROS; 1.0E-05 M): 91 % of control; Residual activity (ROS; 1.0E-06 M): 99 % of control; Residual activity (LIMK1; 1.0E-05 M): 87 % of control; Residual activity (LIMK1; 1.0E-06 M): 102 % of control; Residual activity (PBK; 1.0E-05 M): 93 % of control; Residual activity (PBK; 1.0E-06 M): 128 % of control |
